Results as given in US11311522B1 (Cavion, Inc., priority 2018, dated 2022).

How the values were obtained:
[1] = PN002/Part I: safety and tolerability; format: in vivo, human
Experimental: All adverse events were mild or moderate in intensity. No serious adverse events were reported. […] Treatment periods were separated by a minimum 1-week washout period after administration of the 2 mg dose in Period 1 and by a minimum 2-week washout after subsequent treatment periods. Clinical safety was monitored throughout the study by adverse events, clinical laboratory tests, vital signs, ECGs, and ECG telemetry. *The study was planned to include 8 subjects. A ninth subject was randomized to replace a subject who was discontinued after Period 1 (because of a prolonged QTc interval after administration of the 2 mg dose, which was considered by the investigator to be unrelated to the study drug). […] The most frequently reported adverse events were relaxation, fuzzy head, headache, lightheadedness, dizziness, and mood alteration, all of which were transient and generally mild or moderate in severity.

[2] = 4-week oral toxicology in rats (with FOB); details: for NOAEL at 4 weeks / AUC / Cmax: rat; for NOAEL at 4 weeks: in vivo; for AUC / Cmax: plasma, Day 28, mean (SD)
[3] = Sprague-Dawley rat, 30, 300, or 2000 mg/kg/day oral gavage for 4 weeks

CC(C)c1ccc(CC(=O)N[C@H](C)c2ccc(OCC(F)(F)F)cn2)cc1 [CX-8998]
At least 1 adverse event ([1]; 2 mg): 5 (71.4) n (%)
Breathing difficult ([1]; 2 mg): 0 n (%)
Dizziness ([1]; 2 mg): 0 n (%)
Dizziness upon standing ([1]; 2 mg): 0 n (%)
Dry mouth ([1]; 2 mg): 0 n (%)
Dry throat ([1]; 2 mg): 0 n (%)
Eye Disorders ([1]; 2 mg): 0 n (%)
Feeling drunk ([1]; 2 mg): 0 n (%)
Feeling hot ([1]; 2 mg): 0 n (%)
Feeling of relaxation ([1]; 2 mg): 1 (14.3) n (%)
Feeling of warmth ([1]; 2 mg): 0 n (%)
Floating feeling ([1]; 2 mg): 1 (14.3) n (%)
Fuzzy head ([1]; 2 mg): 0 n (%)
Gastrointestinal Disorders ([1]; 2 mg): 1 (14.3) n (%)
Headache ([1]; 2 mg): 2 (28.6) n (%)
Lightheadedness ([1]; 2 mg): 0 n (%)
Nasal congestion ([1]; 2 mg): 0 n (%)
Nervous System Disorders ([1]; 2 mg): 2 (28.6) n (%)
Paraesthesia of fingers ([1]; 2 mg): 0 n (%)
Respiratory, Thoracic and Mediastinal Disorders ([1]; 2 mg): 1 (14.3) n (%)
Tiredness ([1]; 2 mg): 0 n (%)
Vision blurred ([1]; 2 mg): 0 n (%)
Visual disturbance ([1]; 2 mg): 0 n (%)
At least 1 adverse event ([1]; 4 mg): 5 (83.3) n (%)
Breathing difficult ([1]; 4 mg): 0 n (%)
Dizziness ([1]; 4 mg): 0 n (%)
Dizziness upon standing ([1]; 4 mg): 0 n (%)
Dry mouth ([1]; 4 mg): 0 n (%)
Dry throat ([1]; 4 mg): 0 n (%)
Eye Disorders ([1]; 4 mg): 1 (16.7) n (%)
Feeling drunk ([1]; 4 mg): 0 n (%)
Feeling hot ([1]; 4 mg): 0 n (%)
Feeling of relaxation ([1]; 4 mg): 1 (16.7) n (%)
Feeling of warmth ([1]; 4 mg): 0 n (%)
Floating feeling ([1]; 4 mg): 1 (16.7) n (%)
Fuzzy head ([1]; 4 mg): 1 (16.7) n (%)
Headache ([1]; 4 mg): 3 (50.0) n (%)
Lightheadedness ([1]; 4 mg): 1 (16.7) n (%)
Nasal congestion ([1]; 4 mg): 1 (16.7) n (%)
Nervous System Disorders ([1]; 4 mg): 5 (83.3) n (%)
Paraesthesia of fingers ([1]; 4 mg): 0 n (%)
Respiratory, Thoracic and Mediastinal Disorders ([1]; 4 mg): 1 (16.7) n (%)
Tiredness ([1]; 4 mg): 1 (16.7) n (%)
Vision blurred ([1]; 4 mg): 1 (16.7) n (%)
Visual disturbance ([1]; 4 mg): 0 n (%)
At least 1 adverse event ([1]; 8 mg): 6 (100) n (%)
Breathing difficult ([1]; 8 mg): 1 (16.7) n (%)
Dizziness ([1]; 8 mg): 2 (33.3) n (%)
Dizziness upon standing ([1]; 8 mg): 1 (16.7) n (%)
Dry mouth ([1]; 8 mg): 4 (66.7) n (%)
Dry throat ([1]; 8 mg): 1 (16.7) n (%)
Eye Disorders ([1]; 8 mg): 2 (33.3) n (%)
Feeling drunk ([1]; 8 mg): 0 n (%)
Feeling hot ([1]; 8 mg): 2 (33.3) n (%)
Feeling of relaxation ([1]; 8 mg): 0 n (%)
Feeling of warmth ([1]; 8 mg): 0 n (%)
Floating feeling ([1]; 8 mg): 1 (16.7) n (%)
Fuzzy head ([1]; 8 mg): 2 (33.3) n (%)
Gastrointestinal Disorders ([1]; 8 mg): 4 (66.7) n (%)
Headache ([1]; 8 mg): 3 (50.0) n (%)
Lightheadedness ([1]; 8 mg): 3 (50.0) n (%)
Nasal congestion ([1]; 8 mg): 1 (16.7) n (%)
Nervous System Disorders ([1]; 8 mg): 6 (100.0) n (%)
Paraesthesia of fingers ([1]; 8 mg): 0 n (%)
Respiratory, Thoracic and Mediastinal Disorders ([1]; 8 mg): 3 (50.0) n (%)
Tiredness ([1]; 8 mg): 2 (33.3) n (%)
Vision blurred ([1]; 8 mg): 1 (16.7) n (%)
Visual disturbance ([1]; 8 mg): 1 (16.7) n (%)
At least 1 adverse event ([1]; 12 mg): 5 (83.3) n (%)
Breathing difficult ([1]; 12 mg): 0 n (%)
Dizziness ([1]; 12 mg): 0 n (%)
Dizziness upon standing ([1]; 12 mg): 0 n (%)
Dry mouth ([1]; 12 mg): 1 (16.7) n (%)
Dry throat ([1]; 12 mg): 0 n (%)
Eye Disorders ([1]; 12 mg): 1 (16.7) n (%)
Feeling drunk ([1]; 12 mg): 1 (16.7) n (%)
Feeling hot ([1]; 12 mg): 0 n (%)
Feeling of relaxation ([1]; 12 mg): 2 (33.3) n (%)
Feeling of warmth ([1]; 12 mg): 0 n (%)
Floating feeling ([1]; 12 mg): 0 n (%)
Fuzzy head ([1]; 12 mg): 0 n (%)
Headache ([1]; 12 mg): 3 (50.0) n (%)
Lightheadedness ([1]; 12 mg): 0 n (%)
Nasal congestion ([1]; 12 mg): 0 n (%)
Nervous System Disorders ([1]; 12 mg): 4 (66.7) n (%)
Paraesthesia of fingers ([1]; 12 mg): 0 n (%)
Respiratory, Thoracic and Mediastinal Disorders ([1]; 12 mg): 1 (16.7) n (%)
Tiredness ([1]; 12 mg): 0 n (%)
Vision blurred ([1]; 12 mg): 1 (16.7) n (%)
Visual disturbance ([1]; 12 mg): 0 n (%)
At least 1 adverse event ([1]; 18 mg): 6 (100.0) n (%)
Breathing difficult ([1]; 18 mg): 2 (33.3) n (%)
Dizziness ([1]; 18 mg): 2 (33.3) n (%)
Dizziness upon standing ([1]; 18 mg): 1 (16.7) n (%)
Dry mouth ([1]; 18 mg): 0 n (%)
Dry throat ([1]; 18 mg): 1 (16.7) n (%)
Eye Disorders ([1]; 18 mg): 2 (33.3) n (%)
Feeling drunk ([1]; 18 mg): 1 (16.7) n (%)
Feeling hot ([1]; 18 mg): 2 (33.3) n (%)
Feeling of relaxation ([1]; 18 mg): 2 (33.3) n (%)
Feeling of warmth ([1]; 18 mg): 2 (33.3) n (%)
Floating feeling ([1]; 18 mg): 2 (33.3) n (%)
Fuzzy head ([1]; 18 mg): 2 (33.3) n (%)
Gastrointestinal Disorders ([1]; 18 mg): 3 (50.0) n (%)
Headache ([1]; 18 mg): 2 (33.3) n (%)
Lightheadedness ([1]; 18 mg): 1 (16.7) n (%)
Nasal congestion ([1]; 18 mg): 0 n (%)
Nervous System Disorders ([1]; 18 mg): 6 (100.0) n (%)
Paraesthesia of fingers ([1]; 18 mg): 2 (33.3) n (%)
Respiratory, Thoracic and Mediastinal Disorders ([1]; 18 mg): 2 (33.3) n (%)
Tiredness ([1]; 18 mg): 1 (16.7) n (%)
Vision blurred ([1]; 18 mg): 0 n (%)
Visual disturbance ([1]; 18 mg): 2 (33.3) n (%)
At least 1 adverse event ([1]; any dose): 9 (100.0) n (%)
Breathing difficult ([1]; any dose): 2 (22.2) n (%)
Dizziness ([1]; any dose): 3 (33.3) n (%)
Dizziness upon standing ([1]; any dose): 2 (22.2) n (%)
Dry mouth ([1]; any dose): 4 (44.4) n (%)
Dry throat ([1]; any dose): 2 (22.2) n (%)
Eye Disorders ([1]; any dose): 4 (44.4) n (%)
Feeling drunk ([1]; any dose): 2 (22.2) n (%)
Feeling hot ([1]; any dose): 2 (22.2) n (%)
Feeling of relaxation ([1]; any dose): 5 (55.6) n (%)
Feeling of warmth ([1]; any dose): 2 (22.2) n (%)
Floating feeling ([1]; any dose): 2 (22.2) n (%)
Fuzzy head ([1]; any dose): 3 (33.3) n (%)
Gastrointestinal Disorders ([1]; any dose): 6 (66.7) n (%)
Headache ([1]; any dose): 7 (77.8) n (%)
Lightheadedness ([1]; any dose): 4 (44.4) n (%)
Nasal congestion ([1]; any dose): 2 (22.2) n (%)
Nervous System Disorders ([1]; any dose): 8 (88.8) n (%)
Paraesthesia of fingers ([1]; any dose): 2 (22.2) n (%)
Respiratory, Thoracic and Mediastinal Disorders ([1]; any dose): 4 (44.4) n (%)
Tiredness ([1]; any dose): 3 (33.3) n (%)
Vision blurred ([1]; any dose): 3 (33.3) n (%)
Visual disturbance ([1]; any dose): 3 (33.3) n (%)
Tolerability ([1]; single doses up to 18 mg): generally well tolerated
FOB findings [2, 3]: non-adverse FOB changes were also
female reproductive organ findings (extended diestrus) [2, 3]: Reversible changes
NOEL ([2]; both sexes): < 30 mg/kg/day
NOAEL at 4 weeks ([2]; both, Sprague-Dawley, po): 30 mg/kg
LOEL for the FOB ([2]; female rats, Day 1): 30 mg/kg/day
NOAEL at 4 weeks ([2]; female, oral): < 30 mg/kg/day
AUC ([2]; female, po, 300 mg/kg/day, AUC24, Female rats, 300 mg/kg/day oral gavage): 438 µM·h
Cmax ([2]; female, po, 300 mg/kg/day, Female rats, 300 mg/kg/day oral gavage): 28.3 µM
Cmax ([2]; female, po, 2000 mg/kg/day, Female rats, 2000 mg/kg/day oral gavage): 33.5 µM
NOAEL at 4 weeks ([2]; male, oral): 30 mg/kg/day
AUC ([2]; male, po, 30 mg/kg/day, AUC24, Male rats, 30 mg/kg/day oral gavage): 35.1 µM·h
Cmax ([2]; male, po, 300 mg/kg/day, Male rats, 300 mg/kg/day oral gavage): 26.1 µM
AUC ([2]; male, po, 2000 mg/kg/day, AUC24, Male rats, 2000 mg/kg/day oral gavage): 467 µM·h
Cmax ([2]; male, po, 2000 mg/kg/day, Male rats, 2000 mg/kg/day oral gavage): 28.9 µM
